The results in this text go back to patent US11857535B2, “Methods of treating mutant lymphomas” (Kymera Therapeutics, Inc., priority 2020, dated 2024).

The assay addresses T1, IRAK4 (Homo sapiens, UniProt Q9NWZ3).
T1 construct: endogenous in cells; host or cells: OCI-Ly10
T1 sequence (Q9NWZ3 1-460): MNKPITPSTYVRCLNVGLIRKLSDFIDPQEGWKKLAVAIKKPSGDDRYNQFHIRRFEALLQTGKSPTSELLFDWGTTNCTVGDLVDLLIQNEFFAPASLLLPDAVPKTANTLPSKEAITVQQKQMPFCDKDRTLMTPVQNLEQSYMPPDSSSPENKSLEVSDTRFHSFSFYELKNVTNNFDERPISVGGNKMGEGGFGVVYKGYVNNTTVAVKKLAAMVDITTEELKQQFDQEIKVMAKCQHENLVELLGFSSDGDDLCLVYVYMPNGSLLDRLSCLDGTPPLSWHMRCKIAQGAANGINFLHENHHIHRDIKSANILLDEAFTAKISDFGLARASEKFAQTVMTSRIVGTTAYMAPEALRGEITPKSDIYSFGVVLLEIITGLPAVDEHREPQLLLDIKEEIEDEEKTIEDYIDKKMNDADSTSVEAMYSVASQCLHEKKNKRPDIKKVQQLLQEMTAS
The assay can be described thus: IRAK4 MSD degradation in OCI-Ly10. It is filed as cell-based. The settings on record: FIG. 1. How it is done: Degradation of IRAK4 in OCI-Ly10 was quantitatively measured using Meso Scale Discovery technology. OCI-Ly10 cells were seeded in 96-well plates (Corning 3799) with a density of 300,000 cells per well in 100 μL fresh media. Compounds were then added to the assay plates with a final top concentration of 1 to 10 μM in a 1:3 dilution series with total of 8 doses. The assay plates were then incubated for 4 to 24 hours at 37° C. under 5% CO2. The assay plates were then centrifuged for 5 minutes and the cell pellets were treated with 100 μL/well RIPA lysis buffer (Boston BioProducts BP-115D) with proteinase inhibitors. To prepare MSD assay plates (Meso Scale Discovery Catalog number L15XA-3), the plates were coated with 2 μg/mL capture antibody (mouse Anti-IRAK4 antibody [2H9], ab119942) in PBS, at 40 μL/well. The plates were then incubated overnight at 4° C., washed 3 times with 150 μL/well TBST buffer (Cell Signaling Technology, Catalog number 9997S) and blocked with 150 μL/well blocking buffer (Meso Scale Discovery Catalog number R93BA-4). Cell lysates were then added to MSD assay plates and the plates were incubated at room temperature for 1 hour. The plates were then washed 3 times with 150 μL/well TBST buffer and […] primary detection antibody (rabbit Anti-IRAK4 antibody [Y279], from Abcam. Catalog number ab32511, 1 μg/mL). The assay plates were then incubated at room temperature for 1 hour, washed 3 times with 150 μL/well TBST buffer and 25 μL/well secondary detection antibody, SULFO-TAG anti-rabbit antibody were added (anti rabbit antibody from Meso Scale Discovery, Catalog number R32AB-1, 1 μg/mL). The assay plates were then incubated at room temperature for 1 hour, washed 3 times with 150 μL/well TBST buffer, and 150 μL/well MSD reading buffer (Meso Scale Discovery catalog number R92TC-2) was added. The plates were then analyzed by a MSD reader (Meso Scale Discovery, Model Quick Plex SQ 120). The data was then analyzed by software Prism 7.0 from GraphPad and the dose-depended IRAK4 degradation were fit using a three-parameter logistic equation to calculate DC50.

For `CC(C)(O)c1cc2nc([C@H]3CC[C@H](CN4CC5(CC(CCNc6cccc7c6C(=O)N(C6CCC(=O)NC6=O)C7=O)C5)C4)CC3)sc2cc1NC(=O)c1cccc(C(F)(F)F)n1` (stereo partly shown) [Compound A, N-(2-((1r,4r)-4-((6-(2-((2-(2,6-dioxopiperidin-3-yl)-1,3-dioxoisoindolin-4-yl)amino)ethyl)-2-azaspiro[3.3]heptan-2-yl)methyl)cyclohexyl)-5-(2-hydroxypropan-2-yl)benzo[d]thiazol-6-yl)-6-(trifluoromethyl)picolinamide], the “IRAK4 degradation associated with CTG IC90” value was “approximately 70%”.
